Counter-ions that a name gives are not always drawn.
Test system: healthy rat plasma glyoxylate concentrations
Test: Rats treated with anti-diabetic drug metformin: 28-day oral gavage study, plasma metabolite profiling of glyoxylate
Assay type: in vivo
Conditions: for Ratio treatment/control of plasma glyoxylate: fasted plasma
Procedure: Two groups of each 5 male and female rats was dosed once daily with the indicated compounds with a different dose per group (see below) over 28 days.
Each dose group in the studies consisted of five rats per sex. Additional groups of each 15 male and 15 female animals served as controls. Before starting the treatment period, animals, which were 62-64 days old when supplied, were acclimatized to the housing and environmental conditions for 7 days. All animals of the animal population were kept under the same constant temperature (20-24±3° C.) and the same constant humidity (30-70%). The animals of the animal population were fed ad libitum. The food to be used was essentially free of chemical or microbial contaminants. Drinking water was also offered ad libitum. Accordingly, the water was free of chemical and microbial contaminants as laid down in the European Drinking Water Directive 98/83/EG. The illumination period was 12 hours light followed by 12 hours darkness (12 hours light, from 6:00 to 18:00, and 12 hours darkness, from 18:00 to 6:00). The studies were performed in an AAALAC-approved laboratory in accordance with the German Animal Welfare Act and the European Council Directive 86/609/EE. The test system was arranged according to the OECD 407 guideline for the testing of chemicals for repeated dose 28-day oral toxicity study in rodents. The test substance was dosed and administered as follows:
Metformin hydrochloride was administered by gavage (high dose group at 1 g/kg body weight, low dose group at 0.2 g/kg body weight), in drinking water containing 0.5% Carboxymethyl cellulose (Tylose CB30000) (administration volume: 10 ml/kg body weight).
In the morning of day 7, 14, and 28, blood was taken from the retroorbital venous plexus from fasted anaesthetized animals. From each animal, 1 ml of blood was collected with EDTA as anticoagulant. The samples were centrifuged for generation of plasma. All plasma samples were covered with a N2 atmosphere and then stored at −80° C. until analysis.
For mass spectrometry-based metabolite profiling analyses plasma samples were extracted and a polar and a non-polar (lipid) fraction was obtained. For GC-MS analysis, the non-polar fraction was treated with methanol under acidic conditions to yield the fatty acid methyl esters. Both fractions were further derivatised with O-methyl-hydroxyamine hydrochloride and pyridine to convert Oxo-groups to O-methyloximes and subsequently with a silylating agent before analysis. In LC-MS analysis, both fractions were reconstituted in appropriate solvent mixtures. HPLC was performed by gradient elution on reversed phase separation columns. Mass spectrometric detection which allows target and high sensitivity MRM (Multiple Reaction Monitoring) profiling in parallel to a full screen analysis was applied as described in WO2003073464.
Following comprehensive analytical validation steps, the data for each analyte were normalized against data from pool samples. These samples were run in parallel through the whole process to account for process variability. The significance of treatment group values specific for sex, treatment duration and metabolite was determined by comparing means of the treated groups to the means of the respective untreated control groups using WELCH-test and quantified with treatment ratios versus control and p-values.

CN(C)C(=N)NC(=N)N [Metformin hydrochloride, N,N-dimethylimidodicarbonimidic diamide]
Ratio treatment/control of plasma glyoxylate (High Dose 1 g/kg body weight by gavage once daily, female rats, day 7 (f7)): 0.82
Ratio treatment/control of plasma glyoxylate (High Dose 1 g/kg body weight by gavage once daily, female rats, day 14 (f14)): 0.58
Ratio treatment/control of plasma glyoxylate (High Dose 1 g/kg body weight by gavage once daily, female rats, day 28 (f28)): 0.52
Ratio treatment/control of plasma glyoxylate (High Dose 1 g/kg body weight by gavage once daily, male rats, day 7 (m7)): 0.22
Ratio treatment/control of plasma glyoxylate (High Dose 1 g/kg body weight by gavage once daily, male rats, day 14 (m14)): 0.29
Ratio treatment/control of plasma glyoxylate (High Dose 1 g/kg body weight by gavage once daily, male rats, day 28 (m28)): 0.58
Ratio treatment/control of plasma glyoxylate (Low Dose 0.2 g/kg body weight by gavage once daily, female rats, day 7 (f7)): 1.01
Ratio treatment/control of plasma glyoxylate (Low Dose 0.2 g/kg body weight by gavage once daily, female rats, day 14 (f14)): 0.72
Ratio treatment/control of plasma glyoxylate (Low Dose 0.2 g/kg body weight by gavage once daily, female rats, day 28 (f28)): 0.64
Ratio treatment/control of plasma glyoxylate (Low Dose 0.2 g/kg body weight by gavage once daily, male rats, day 7 (m7)): 0.59
Ratio treatment/control of plasma glyoxylate (Low Dose 0.2 g/kg body weight by gavage once daily, male rats, day 14 (m14)): 0.65
Ratio treatment/control of plasma glyoxylate (Low Dose 0.2 g/kg body weight by gavage once daily, male rats, day 28 (m28)): 0.44
Effect on glyoxylate concentrations in rat model system (summary in words) (rat model system, summary of Table 8): capable of reducing glyoxylate concentrations

From patent US20130295692A1, “MEANS AND METHODS FOR PREDICTING DIABETES” (METANOMICS HEALTH GMBH, priority 2010, published 2013)
